According to patent US12343326B2, “Psychoactive medicines and their use for treating psychiatric and neurological conditions and disorders” (Transcend Therapeutics, Inc., priority 2021, dated 2025):

What was measured:
Assay in all cases: β-arrestin based GPCR screen (PathHunter / GPCRmax), agonist mode
Assay type in all cases: cell-based
Set-up in all cases: host or cells: PathHunter cell lines
168 GPCRs [1] = biological target: 168 GPCRs (Homo sapiens, UniProt P20309); conditions: CHRM3, Agonist
Procedure: (§1) For agonist determination, cells were incubated with sample to induce response. […] Vehicle concentration was 1%.

168 GPCRs [2] = biological target: 168 GPCRs (Homo sapiens, UniProt P25929); conditions: NPY1R
Procedure: as §1

168 GPCRs [3] = biological target: 168 GPCRs (Homo sapiens, UniProt P28336); conditions: NMBR
Procedure: as §1

168 GPCRs [4] = biological target: 168 GPCRs (Homo sapiens, UniProt P30559); conditions: OXTR
Procedure: as §1

168 GPCRs [5] = biological target: 168 GPCRs (Homo sapiens, UniProt P30872)
Procedure: as §1

168 GPCRs [6] = biological target: T1, 168 GPCRs (Homo sapiens, UniProt P30939); conditions: HTR1F
T1 sequence (P30939 1-366): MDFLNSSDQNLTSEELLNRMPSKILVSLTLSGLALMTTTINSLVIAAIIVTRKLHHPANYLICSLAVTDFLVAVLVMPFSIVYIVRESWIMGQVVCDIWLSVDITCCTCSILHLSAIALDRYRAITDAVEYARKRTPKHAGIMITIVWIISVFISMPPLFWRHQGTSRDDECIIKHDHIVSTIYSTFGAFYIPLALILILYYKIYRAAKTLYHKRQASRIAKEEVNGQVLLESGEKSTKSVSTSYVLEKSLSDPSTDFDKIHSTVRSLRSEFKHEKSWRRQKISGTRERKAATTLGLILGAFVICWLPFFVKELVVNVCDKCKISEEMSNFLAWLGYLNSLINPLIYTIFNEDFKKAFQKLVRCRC
Procedure: as §1

168 GPCRs [7] = biological target: 168 GPCRs (Homo sapiens, UniProt P32245); conditions: MC4R
Procedure: as §1

168 GPCRs [8] = biological target: 168 GPCRs (Homo sapiens, UniProt P35408)
Procedure: as §1

168 GPCRs [9] = biological target: 168 GPCRs (Homo sapiens, UniProt P43116)
Procedure: as §1

168 GPCRs [10] = biological target: 168 GPCRs (Homo sapiens, UniProt P47871); conditions: GCGR
Procedure: as §1

168 GPCRs [11] = biological target: 168 GPCRs (Homo sapiens, UniProt P47901); conditions: AVPR1B, Agonist
Procedure: as §1

168 GPCRs [12] = biological target: 168 GPCRs (Homo sapiens, UniProt P48039); conditions: MTNR1A
Procedure: as §1

168 GPCRs [13] = biological target: 168 GPCRs (Homo sapiens, UniProt P51677); conditions: CCR3, Agonist
Procedure: as §1

168 GPCRs [14] = biological target: 168 GPCRs (Homo sapiens, UniProt Q01726); conditions: MC1R
Procedure: as §1

168 GPCRs [15] = biological target: 168 GPCRs (Homo sapiens, UniProt Q16581); conditions: C3AR1, Agonist
Procedure: as §1

168 GPCRs [16] = biological target: 168 GPCRs (Homo sapiens, UniProt Q8TCW9)
Procedure: as §1

168 GPCRs [17] = biological target: 168 GPCRs (Homo sapiens, UniProt Q8TDS4); conditions: GPR109A
Procedure: as §1

168 GPCRs [18] = biological target: 168 GPCRs (Homo sapiens, UniProt Q8TDS5)
Procedure: as §1

168 GPCRs [19] = biological target: 168 GPCRs (Homo sapiens, UniProt Q99788); conditions: CMKLR1, Agonist
Procedure: as §1

168 GPCRs [20] = biological target: 168 GPCRs (Homo sapiens, UniProt Q9H244)
Procedure: as §1

Chain of 168 GPCRs (Homo sapiens, UniProt Q8TDS4) (Q8TDS4 whole entry): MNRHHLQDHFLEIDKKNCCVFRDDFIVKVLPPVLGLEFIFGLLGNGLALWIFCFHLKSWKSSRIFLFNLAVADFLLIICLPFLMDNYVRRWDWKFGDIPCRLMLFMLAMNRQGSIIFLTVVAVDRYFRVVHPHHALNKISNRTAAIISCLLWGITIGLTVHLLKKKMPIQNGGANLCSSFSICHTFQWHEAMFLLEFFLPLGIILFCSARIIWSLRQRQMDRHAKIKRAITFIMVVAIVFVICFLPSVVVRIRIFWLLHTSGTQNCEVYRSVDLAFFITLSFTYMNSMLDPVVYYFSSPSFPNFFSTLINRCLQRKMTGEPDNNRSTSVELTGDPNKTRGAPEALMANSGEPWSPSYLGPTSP
Chain of 168 GPCRs (Homo sapiens, UniProt Q16581) (Q16581 whole entry): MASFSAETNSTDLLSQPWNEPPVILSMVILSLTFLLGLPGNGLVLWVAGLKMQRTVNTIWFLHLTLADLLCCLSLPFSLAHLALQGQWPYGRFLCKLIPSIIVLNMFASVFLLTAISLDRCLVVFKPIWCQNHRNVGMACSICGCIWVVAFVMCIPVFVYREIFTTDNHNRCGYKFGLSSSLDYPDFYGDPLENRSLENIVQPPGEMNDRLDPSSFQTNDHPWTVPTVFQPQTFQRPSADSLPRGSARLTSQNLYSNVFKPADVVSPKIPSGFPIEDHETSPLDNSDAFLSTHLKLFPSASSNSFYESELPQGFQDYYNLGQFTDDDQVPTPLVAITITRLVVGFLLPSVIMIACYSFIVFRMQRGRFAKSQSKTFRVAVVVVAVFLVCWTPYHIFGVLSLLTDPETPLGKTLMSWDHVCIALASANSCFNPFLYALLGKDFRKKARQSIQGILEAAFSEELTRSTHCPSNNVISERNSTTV
Chain of 168 GPCRs (Homo sapiens, UniProt Q9H244) (Q9H244 whole entry): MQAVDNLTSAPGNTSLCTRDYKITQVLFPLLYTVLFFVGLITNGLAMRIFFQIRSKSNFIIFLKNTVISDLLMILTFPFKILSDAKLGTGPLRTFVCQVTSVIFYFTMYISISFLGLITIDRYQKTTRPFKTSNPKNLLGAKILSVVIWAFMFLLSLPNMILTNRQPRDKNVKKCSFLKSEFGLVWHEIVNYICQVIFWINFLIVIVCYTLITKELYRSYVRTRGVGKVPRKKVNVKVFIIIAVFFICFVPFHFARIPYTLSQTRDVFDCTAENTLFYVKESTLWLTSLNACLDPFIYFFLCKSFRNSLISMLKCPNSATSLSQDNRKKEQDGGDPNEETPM
Chain of 168 GPCRs (Homo sapiens, UniProt P51677) (P51677 whole entry): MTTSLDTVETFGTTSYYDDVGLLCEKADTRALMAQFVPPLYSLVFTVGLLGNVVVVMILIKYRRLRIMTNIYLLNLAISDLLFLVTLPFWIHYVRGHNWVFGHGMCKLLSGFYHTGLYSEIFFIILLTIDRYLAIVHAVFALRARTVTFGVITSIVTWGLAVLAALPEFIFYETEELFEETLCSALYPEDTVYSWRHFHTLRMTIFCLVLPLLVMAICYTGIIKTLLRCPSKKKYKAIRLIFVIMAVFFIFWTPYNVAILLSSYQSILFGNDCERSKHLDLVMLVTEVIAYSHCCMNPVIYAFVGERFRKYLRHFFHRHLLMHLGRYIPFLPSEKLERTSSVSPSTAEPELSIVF
Chain of 168 GPCRs (Homo sapiens, UniProt Q8TDS5) (Q8TDS5 whole entry): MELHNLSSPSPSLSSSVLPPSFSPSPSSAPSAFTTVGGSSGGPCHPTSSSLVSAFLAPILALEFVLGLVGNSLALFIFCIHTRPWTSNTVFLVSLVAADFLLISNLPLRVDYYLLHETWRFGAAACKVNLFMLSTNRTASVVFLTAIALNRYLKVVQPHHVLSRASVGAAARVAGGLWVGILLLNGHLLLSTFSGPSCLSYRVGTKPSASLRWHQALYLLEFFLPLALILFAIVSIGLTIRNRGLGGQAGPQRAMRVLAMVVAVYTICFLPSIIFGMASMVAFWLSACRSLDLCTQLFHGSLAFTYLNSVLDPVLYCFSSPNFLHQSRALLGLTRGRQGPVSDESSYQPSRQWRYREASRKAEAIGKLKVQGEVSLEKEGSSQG
Chain of 168 GPCRs (Homo sapiens, UniProt P47871) (P47871 26-477): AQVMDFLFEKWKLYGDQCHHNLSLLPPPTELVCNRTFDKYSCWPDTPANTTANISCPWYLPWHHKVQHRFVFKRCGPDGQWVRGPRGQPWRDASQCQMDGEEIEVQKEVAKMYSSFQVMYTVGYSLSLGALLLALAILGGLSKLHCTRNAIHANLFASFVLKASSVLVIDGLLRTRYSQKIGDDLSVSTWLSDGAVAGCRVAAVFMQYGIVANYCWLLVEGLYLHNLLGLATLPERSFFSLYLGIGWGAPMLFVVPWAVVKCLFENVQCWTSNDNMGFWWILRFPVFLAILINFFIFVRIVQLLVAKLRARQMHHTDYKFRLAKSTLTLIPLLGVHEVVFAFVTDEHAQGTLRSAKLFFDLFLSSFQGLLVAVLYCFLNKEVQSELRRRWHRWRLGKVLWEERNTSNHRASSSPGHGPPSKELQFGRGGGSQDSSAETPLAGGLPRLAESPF
Chain of 168 GPCRs (Homo sapiens, UniProt P32245) (P32245 whole entry): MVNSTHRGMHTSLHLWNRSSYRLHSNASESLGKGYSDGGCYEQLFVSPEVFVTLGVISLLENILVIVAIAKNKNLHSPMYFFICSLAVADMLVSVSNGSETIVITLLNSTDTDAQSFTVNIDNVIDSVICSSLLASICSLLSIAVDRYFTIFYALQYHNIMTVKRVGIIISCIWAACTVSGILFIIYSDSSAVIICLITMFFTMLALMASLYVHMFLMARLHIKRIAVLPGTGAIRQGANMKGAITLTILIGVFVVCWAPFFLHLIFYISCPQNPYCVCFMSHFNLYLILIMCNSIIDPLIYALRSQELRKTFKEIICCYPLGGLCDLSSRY
Chain of 168 GPCRs (Homo sapiens, UniProt P35408) (P35408 whole entry): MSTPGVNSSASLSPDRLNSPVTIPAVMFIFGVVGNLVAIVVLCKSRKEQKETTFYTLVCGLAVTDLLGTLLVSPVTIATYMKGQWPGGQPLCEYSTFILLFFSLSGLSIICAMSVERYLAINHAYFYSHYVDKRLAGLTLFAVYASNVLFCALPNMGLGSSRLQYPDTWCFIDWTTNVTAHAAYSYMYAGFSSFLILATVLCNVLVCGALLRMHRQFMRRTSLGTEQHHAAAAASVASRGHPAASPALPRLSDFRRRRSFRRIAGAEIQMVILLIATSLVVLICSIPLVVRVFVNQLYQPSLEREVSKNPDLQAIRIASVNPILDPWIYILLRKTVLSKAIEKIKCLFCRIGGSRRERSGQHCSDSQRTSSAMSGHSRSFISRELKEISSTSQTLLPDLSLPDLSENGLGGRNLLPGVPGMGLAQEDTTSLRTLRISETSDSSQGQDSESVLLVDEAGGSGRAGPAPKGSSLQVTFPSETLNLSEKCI
Chain of 168 GPCRs (Homo sapiens, UniProt P30872) (P30872 whole entry): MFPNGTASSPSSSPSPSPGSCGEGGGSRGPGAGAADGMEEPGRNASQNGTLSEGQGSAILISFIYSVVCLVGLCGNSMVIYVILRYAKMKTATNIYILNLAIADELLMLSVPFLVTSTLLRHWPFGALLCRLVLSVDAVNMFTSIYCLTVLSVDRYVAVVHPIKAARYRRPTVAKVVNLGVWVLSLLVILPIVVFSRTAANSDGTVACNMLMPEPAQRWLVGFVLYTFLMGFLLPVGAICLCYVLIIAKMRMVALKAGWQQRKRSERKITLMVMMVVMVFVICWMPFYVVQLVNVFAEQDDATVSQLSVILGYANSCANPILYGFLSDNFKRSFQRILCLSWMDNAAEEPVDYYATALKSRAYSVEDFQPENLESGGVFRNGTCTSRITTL
Chain of 168 GPCRs (Homo sapiens, UniProt P28336) (P28336 whole entry): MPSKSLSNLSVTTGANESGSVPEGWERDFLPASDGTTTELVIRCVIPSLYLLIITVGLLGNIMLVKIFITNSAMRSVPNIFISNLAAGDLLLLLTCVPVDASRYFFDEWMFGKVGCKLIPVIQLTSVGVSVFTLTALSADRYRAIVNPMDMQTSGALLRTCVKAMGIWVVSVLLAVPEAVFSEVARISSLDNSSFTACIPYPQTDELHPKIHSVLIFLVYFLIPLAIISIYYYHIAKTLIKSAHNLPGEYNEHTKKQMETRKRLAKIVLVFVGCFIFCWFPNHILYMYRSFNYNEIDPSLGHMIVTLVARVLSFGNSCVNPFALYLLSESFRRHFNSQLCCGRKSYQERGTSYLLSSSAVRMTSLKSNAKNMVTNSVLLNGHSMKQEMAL
Chain of 168 GPCRs (Homo sapiens, UniProt Q99788) (Q99788 whole entry): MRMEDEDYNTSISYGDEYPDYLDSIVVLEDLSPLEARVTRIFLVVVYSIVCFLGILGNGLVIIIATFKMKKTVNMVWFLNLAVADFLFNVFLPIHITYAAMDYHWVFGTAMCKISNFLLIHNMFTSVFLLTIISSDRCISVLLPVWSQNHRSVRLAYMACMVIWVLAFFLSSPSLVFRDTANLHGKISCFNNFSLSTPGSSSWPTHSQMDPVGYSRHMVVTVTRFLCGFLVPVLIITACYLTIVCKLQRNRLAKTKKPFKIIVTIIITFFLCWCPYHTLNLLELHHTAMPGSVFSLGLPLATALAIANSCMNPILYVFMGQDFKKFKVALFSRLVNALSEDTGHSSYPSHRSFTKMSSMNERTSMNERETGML
Chain of 168 GPCRs (Homo sapiens, UniProt Q01726) (Q01726 whole entry): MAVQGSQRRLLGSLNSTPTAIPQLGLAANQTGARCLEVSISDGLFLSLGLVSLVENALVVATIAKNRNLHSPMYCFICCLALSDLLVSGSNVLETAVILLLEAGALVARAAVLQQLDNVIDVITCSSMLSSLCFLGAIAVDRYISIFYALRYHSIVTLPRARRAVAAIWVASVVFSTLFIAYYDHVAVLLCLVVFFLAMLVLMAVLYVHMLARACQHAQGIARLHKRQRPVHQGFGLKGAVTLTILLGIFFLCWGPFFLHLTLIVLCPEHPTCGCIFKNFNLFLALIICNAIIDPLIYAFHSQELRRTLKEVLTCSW

Question: Which results are given for `CNC(C)C(=O)c1ccc2c(c1)OCO2` (stereo not shown) [methylone, 3,4-methylenedioxy-N-methylcathinone]?
Answer: activity at 1 µM (168 GPCRs [1]; 1 uM): 6%; activity at 10 µM (168 GPCRs [1]; 10 uM): 6%; activity at 10 µM (168 GPCRs [2]; Agonist mode, 10 uM): -4.9%; activity at 1 µM (168 GPCRs [2]; Agonist, 1 uM): -2.2%; activity at 10 µM (168 GPCRs [3]; Agonist mode, 10 uM): 1.2%; activity at 1 µM (168 GPCRs [3]; Agonist, 1 uM): 1.1%; activity at 10 µM (168 GPCRs [4]; Agonist mode, 10 uM): -0.5%; activity at 1 µM (168 GPCRs [4]; Agonist, 1 uM): -0.6%; activity at 10 µM (168 GPCRs [5]; SSTR1, Agonist mode, 10 uM): -7.4%; activity at 1 µM (168 GPCRs [5]; SSTR1, Agonist, 1 uM): -5.3%; activity at 10 µM (168 GPCRs [6]; Agonist mode, 10 uM): -3%; activity at 1 µM (168 GPCRs [6]; Agonist, 1 uM): -4.4%; activity at 10 µM (168 GPCRs [7]; Agonist mode, 10 uM): -1.1%; activity at 1 µM (168 GPCRs [7]; Agonist, 1 uM): -1.4%; activity at 10 µM (168 GPCRs [8]; PTGER4, Agonist mode, 10 uM): -1.4%; activity at 1 µM (168 GPCRs [8]; PTGER4, Agonist, 1 uM): -2.8%; activity at 10 µM (168 GPCRs [9]; PTGER2, Agonist mode, 10 uM): -3.1%; activity at 1 µM (168 GPCRs [9]; PTGER2, Agonist, 1 uM): -1.4%; activity at 10 µM (168 GPCRs [10]; Agonist mode, 10 uM): -3%; activity at 1 µM (168 GPCRs [10]; Agonist, 1 uM): -2.3%; activity at 1 µM (168 GPCRs [11]; 1 uM): -1.2%; activity at 10 µM (168 GPCRs [11]; 10 uM): -1.1%; activity at 10 µM (168 GPCRs [12]; Agonist mode, 10 uM): -11.7%; activity at 1 µM (168 GPCRs [12]; Agonist, 1 uM): -12.3%; activity at 1 µM (168 GPCRs [13]; 1 uM): -6.7%; activity at 10 µM (168 GPCRs [13]; 10 uM): -7.6%; activity at 10 µM (168 GPCRs [14]; Agonist mode, 10 uM): -4.4%; activity at 1 µM (168 GPCRs [14]; Agonist, 1 uM): -2.6%; activity at 1 µM (168 GPCRs [15]; 1 uM): -0.1%; activity at 10 µM (168 GPCRs [15]; 10 uM): 0%; activity at 10 µM (168 GPCRs [16]; PROKR1, Agonist mode, 10 uM): -2.8%; activity at 1 µM (168 GPCRs [16]; PROKR1, Agonist, 1 uM): -1.3%; activity at 10 µM (168 GPCRs [17]; Agonist mode, 10 uM): -4.3%; activity at 1 µM (168 GPCRs [17]; Agonist, 1 uM): -8.7%; activity at 10 µM (168 GPCRs [18]; OXER1, Agonist mode, 10 uM): -3.7%; activity at 1 µM (168 GPCRs [18]; OXER1, Agonist, 1 uM): 3.2%; activity at 1 µM (168 GPCRs [19]; 1 uM): -0.2%; activity at 10 µM (168 GPCRs [19]; 10 uM): -0.3%; activity at 10 µM (168 GPCRs [20]; P2RY12, Agonist mode, 10 uM): -2.5%; activity at 1 µM (168 GPCRs [20]; P2RY12, Agonist, 1 uM): -1.5%
